{"source": "patent US7947312B2", "about": "“Method of preparation and composition of a water soluble extract of the bioactive component of the plant species Uncaria for enhancing immune, anti-inflammatory, anti-tumor and DNA repair processes of warm blooded animals” (priority 2002, dated 2011)", "key": {"[1]": {"test_system": "DXR-induced leucopenia", "assay": "Doxorubicin (DXR)-induced leucopenia rat model, recovery of peripheral WBC", "assay_type": "in vivo", "settings": "200 mg/kg gavage, compared to C-MED-100", "source_text": "In vivo evaluation of the efficacy of quinic acid as an active ingredient isolated from water soluble Cat's Claw extracts. A rat model was used to evaluate if active ingredients isolated from water soluble extracts of Cat's Claw could be shown to be effective in vivo by inducing recovery of peripheral white blood cells (WBC) after doxorubicin (DXR)-induced leucopenia. […] The rat study experimental design used to compare quinic acid and C-MED-100® is outlined in detail (diagrammatic form) below.\n50 female W/Fu rats, weighing 150-180 g each, were divided into 5 groups of 10 rats per group. Doxorubicin, obtained from Pharmacia and Upjohn, was administered in a 2 mg/kg dose for all rats groups 2-5, IP injection (day 1, 3, 5). Group 3 also received C-MED-100® (Batch No E-40622), administered in a dose of 80 mg/kg, gavage daily from day 6 (24 hours after the third/last treatment of DXR) to the end of experiment (day 21/22). […]\nThe body weight (GM) of each rat was measured before and at the end of the experiment. […] Whole peripheral blood samples were collected into K3-EDTA containing tubes by periorbital puncture and then analyzed for WBC within 1 hour with an automated hematology analyzer (Sysmex, K-1000) Organ weights from major tissues (liver, kidney, lung, heart, spleen) were also collected and used as an indicator of any toxicity."}, "[2]": {"test_system": "Jurkat T cells", "assay": "Jurkat T cell death and apoptosis (Annexin V / 7AAD)", "assay_type": "cell-based, human", "settings": "24 hours, concentrations inhibiting NF-κB", "method": "FIG. 5A illustrates Jurkat T that are cells transfected with a NF-κB reporter construct were pre-cultured with various concentrations of QA or C-MED-100® for two hours. PMA (50 ng/ml) and ionomycin (1 μM) were thereafter added and the cells incubated for another six hours. The mean induction of luciferase activity in triplicate cultures from one representative experiment out of four are shown (left panel). QA induced no cell death or apoptosis in Jurkat T cells at concentrations which inhibited NF-κB activity. Jurkat T cells were incubated with various concentrations of QA for 24 hours and thereafter stained with Annexin V and 7AAD before analysis by flow cytometry. […]\nCell cultures: Raji human Burkitt's lymphoma (CCL-86), Jurkat human acute T-cell leukemia (TIB-152), 70Z/3 mouse pre-B lymphocyte cell line (TIB-158), or mouse spleen cells were used in the experiments. […] The number of Raji cells in duplicate cultures were determined with a Coulter Z1 cell counter (Beckman Coulter Inc, Fullerton, Calif., USA) three times each. The number of viable and dead cells were determined using trypan blue exclusion, by counting three independent samples from duplicate cultures. […] Proliferation was detected by measuring thymidine incorporation after a 4 hours pulse with 1 μCi ^3[H]-thymidine (Amersham Pharmacia)."}, "[3]": {"test_system": "Raji cells", "assay": "Raji cell death and apoptosis (Annexin V / 7AAD flow cytometry)", "assay_type": "cell-based, human", "source_text": "Cells from the same cultures as in FIG. 3B were stained with Annexin V and 7AAD and analyzed by flow cytometry. The results are presented as the mean number of Annexin V^+ 7AAD^− (apoptotic) or 7AAD^+ (dead) cells±S.D. of duplicates from three experiments with similar results. Statistically significant differences (*p<0.05) and (**p<0.01), compared to Raji cells grown in medium (no drug).\n(§1) Cell cultures: Raji human Burkitt's lymphoma (CCL-86), Jurkat human acute T-cell leukemia (TIB-152), 70Z/3 mouse pre-B lymphocyte cell line (TIB-158), or mouse spleen cells were used in the experiments. The cells were cultured in RPMI medium (Life Technologies) supplemented with 10% FCS, 10 mM HEPES buffer, antibiotics, 50 μM 2-mercaptoethanol and 1 mM sodium pyruvate (all supplements from Life Technologies) at 37° C., 5% CO2. The number of Raji cells in duplicate cultures were determined with a Coulter Z1 cell counter (Beckman Coulter Inc, Fullerton, Calif., USA) three times each. The number of viable and dead cells were determined using trypan blue exclusion, by counting three independent samples from duplicate cultures. […] Proliferation was detected by measuring thymidine incorporation after a 4 hours pulse with 1 μCi ^3[H]-thymidine (Amersham Pharmacia)."}, "[4]": {"test_system": "Jurkat T cells", "assay": "Jurkat T cell proliferation (data not shown)", "assay_type": "cell-based, human"}, "[5]": {"test_system": "mouse spleen cells activated with Con A or LPS", "assay": "Proliferation of mitogen-stimulated mouse spleen cells (3[H]-thymidine incorporation)", "assay_type": "cell-based", "settings": "Con A 2.5 μg/ml or LPS 10 μg/ml, 48 hours", "method": "FIG. 4A illustrates spleen cells (2×10^5) that were activated with Con A (left; 2.5 μg/ml) or LPS (right; 10 μg/ml) in the presence of indicated concentrations of C-MED-100®, QAA or QA. Proliferation was assayed after 48 hours by ^3[H]-thymidine incorporation in triplicate cultures. Results from one representative experiment out of three are presented as mean values±S.D.\nas §1"}}, "note": "Where a name gives a salt, the structure may show the parent alone."}
{"smiles": "O=C(O)C1(O)CC(O)C(O)C(O)C1", "note": "(stereo not shown) [QA, 1,3,4,5-tetrahydroxy-cyclohexanecarboxylic acid]", "values": [{"measurement": "recovery from DXR-induced leucopenia", "setting": "[1]", "value": "could induce recovery from DXR-induced leucopenia about as effectively as 80 mg/kg C-MED-100® could"}, {"measurement": "cell death in Jurkat T cells", "setting": "[2]", "value": "did not induce cell death"}, {"measurement": "induction of cell death in Raji cells", "setting": "[3]", "value": "do not induce cell death"}, {"measurement": "proliferation of Jurkat T cells", "setting": "[4]", "value": "did not inhibit proliferation"}]}
{"smiles": "O=C(O)[C@]1(O)C[C@@H](O)[C@@H](O)[C@H](O)C1", "note": "[QAA, quinic acid ammonium salt]", "values": [{"measurement": "recovery from DXR-induced leucopenia", "setting": "[1]", "value": "could induce recovery from DXR-induced leucopenia about as effectively as 80 mg/kg C-MED-100® could"}, {"measurement": "proliferation of mitogen-stimulated mouse lymphocytes", "setting": "[5]", "value": "inhibited cell proliferation in a dose dependent manner"}, {"measurement": "induction of cell death in Raji cells", "setting": "[3]", "value": "do not induce cell death"}]}
